The series is described as follows: Tacrolimus tissue pharmacokinetics, oral vs intra-cecal ingestible device delivery. The class given is in vivo, Yorkshire-Cross farm swine. The following applies: swine; intra-cecal as compared to oral administration, 12 hours post-dose. The method, then:
The primary objective of this study was to compare the tissue, plasma, rectal sample, and GI content pharmacokinetics of tacrolimus through oral versus intra-cecal ingestible device delivery in normal Yorkshire-Cross farm swine.
No further randomization procedure was employed.
Animals in Group 1 received an ingestible device containing 0.8 mL of vehicle solution (80% alcohol, 20% HCO-60). Animals in Group 2 received orally […] liquid formulation of tacrolimus at 4 mg/0.8 mL per animal (Prograf: 5 mg/mL). Animals in Group 3 received intra-cecally an ingestible device containing tacrolimus at 1 mg in 0.8 mL per ingestible device. […]
Approximately 200˜400 mg of rectal content were collected, if available, with a fecal swab (Copan Diagnostics Nylon Flocked Dry Swabs, 502CS01). The fecal swab was pre-weighed and weighed after collection in the collection tube (Sterile Tube and Cap No Media, PFPM913S), and the sample weight was recorded. […]
For tissue necropsy, small intestine fluid and cecal fluid were collected separately from all the animals into two separate square plastic bottles, and stored at −20° C. The length and diameter of the cecum and the colon was measured from one animal in each group and recorded for reference. […] All samples were weighed, and the tissue sample weights were recorded. […]

The values that follow come from patent publication US11134889B2, “Treatment of a disease of the gastrointestinal tract with a SMAD7 inhibitor” (Progenity, Inc., priority 2016, dated 2021).

Structures are written as SMILES.

On to `C=CC[C@@H]1/C=C(\C)C[C@H](C)C[C@H](OC)[C@H]2O[C@@](O)(C(=O)C(=O)N3CCCC[C@H]3C(=O)O[C@H](/C(C)=C/[C@@H]3CC[C@@H](O)[C@H](OC)C3)[C@H](C)[C@@H](O)CC1=O)[C@H](C)C[C@@H]2OC` [tacrolimus], for which the “mean concentration in the cecum tissue and the proximate colon tissue (FIG. 76)” value was “higher”.
